Results on 31 compounds are retold here after patent publication US9815796B2 (Merck Sharp & Dohme Corp., priority 2013, dated 2017).

The target of this assay is human PDE2A1 (Homo sapiens (Human), UniProt O00408). The assay can be described thus: IMAP FP PDE selectivity panel, human PDE2A1. The assay is classed as biochemical. The following applies: Human PDE2, Lab B; read-out: Human PDE2 Ki (nM) - Lab B. The gist of the method: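 IMAP FP format: substrate 50 nM FAM-cAMP plus 1000 nM cGMP, enzyme (insect-cell GST-tagged human PDE2A1) at ~20% conversion, 60 min reaction at room temperature. Apparent inhibition constants calculated from parallel/perpendicular fluorescence with KM 10,000 nM.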

By Ki is commonly meant a measure of affinity in units of concentration, obtained from inhibition or displacement.

The structures appear in SMILES notation.

Sequence of human PDE2A1 (O00408 other isoform, or with tags, fused parts or gaps): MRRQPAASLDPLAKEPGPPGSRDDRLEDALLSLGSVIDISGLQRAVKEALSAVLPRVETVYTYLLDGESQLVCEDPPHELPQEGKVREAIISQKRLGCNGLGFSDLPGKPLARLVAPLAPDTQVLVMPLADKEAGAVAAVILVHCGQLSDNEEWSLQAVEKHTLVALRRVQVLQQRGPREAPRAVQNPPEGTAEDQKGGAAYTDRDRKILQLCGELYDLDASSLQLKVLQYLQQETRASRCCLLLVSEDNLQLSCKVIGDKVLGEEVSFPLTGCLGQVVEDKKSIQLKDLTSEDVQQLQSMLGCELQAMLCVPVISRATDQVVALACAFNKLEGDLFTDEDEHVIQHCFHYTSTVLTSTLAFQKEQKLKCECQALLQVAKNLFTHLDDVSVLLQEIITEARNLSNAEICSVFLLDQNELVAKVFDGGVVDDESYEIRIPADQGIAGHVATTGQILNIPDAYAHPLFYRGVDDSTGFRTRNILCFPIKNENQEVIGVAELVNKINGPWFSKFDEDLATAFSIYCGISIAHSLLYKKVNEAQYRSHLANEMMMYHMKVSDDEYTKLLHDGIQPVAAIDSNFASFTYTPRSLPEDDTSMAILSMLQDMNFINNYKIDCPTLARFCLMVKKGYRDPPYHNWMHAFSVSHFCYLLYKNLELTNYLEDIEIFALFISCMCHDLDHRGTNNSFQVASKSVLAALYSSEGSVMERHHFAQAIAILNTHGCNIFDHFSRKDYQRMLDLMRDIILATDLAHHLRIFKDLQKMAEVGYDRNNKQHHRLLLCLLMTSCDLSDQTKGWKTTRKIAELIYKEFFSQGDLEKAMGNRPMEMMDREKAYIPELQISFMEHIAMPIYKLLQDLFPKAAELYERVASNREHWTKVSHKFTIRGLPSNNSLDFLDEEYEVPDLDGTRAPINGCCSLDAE

On to `CC(C)(C)C(NC(=O)c1cc(=O)[nH]c(-c2ncco2)n1)c1ccc(C(F)(F)F)cc1` (single isomer, unassigned) [Example 683, (S)- or (R)-N-(2,2-dimethyl-1-(4-(trifluoromethyl)phenyl)propyl)-2-(oxazol-2-yl)-6-oxo-1,6-dihydropyrimidine-4-carboxamide], for which the Ki was greater than 2960 nM.

For `CC(NC(=O)c1cc(=O)[nH]c(-c2ncccn2)n1)c1ccc(C(C)(C)C(F)(F)F)cc1` (single isomer, unassigned) [Example 701, (R)- or (S)-6-oxo-N-(1-(4-(1,1,1-trifluoro-2-methylpropan-2-yl)phenyl)ethyl)-1,6-dihydro-[2,2′-bipyrimidine]-4-carboxamide], the Ki was determined as 127 nM.

Regarding `CC1([C@@H](NC(=O)c2cc(=O)[nH]c(-c3ccccc3)n2)c2ccc(OC(F)F)cc2)CC1` [Example 548, N-[(R)-[4-(difluoromethoxy)phenyl](1-methylcyclopropyl)methyl]-6-oxo-2-phenyl-1,6-dihydropyrimidine-4-carboxamide], the Ki worked out at 4.5 nM.

Consider `O=C(NC1(c2ccc3c(c2)OC(F)(F)O3)CC1)c1cc(=O)[nH]c(-c2ncccn2)n1` [Example 571, N-[1-(2,2-difluoro-1,3-benzodioxol-5-yl)cyclopropyl]-6-oxo-1,6-dihydro-2,2′-bipyrimidine-4-carboxamide], for which the Ki was 71 nM.

Consider `CC1(c2ccc(C(NC(=O)c3cc(=O)[nH]c(C4CC4)n3)C(C)(C)C)cc2F)CC1` (single isomer, unassigned) [Example 713, (R)- or (S)-2-cyclopropyl-N-(1-(3-fluoro-4-(1-methylcyclopropyl)phenyl)-2,2-dimethylpropyl)-6-oxo-1,6-dihydropyrimidine-4-carboxamide], for which the Ki came to 1.5 nM.

With `CC1([C@@H](NC(=O)c2cc(=O)[nH]c(-c3ccccc3)n2)c2ccc(S(F)(F)(F)(F)F)cc2)CC1` [Example 549, N-{(R)-(1-methylcyclopropyl)[4-(pentafluoro-λ^6-sulfanyl)phenyl]methyl}-6-oxo-2-phenyl-1,6-dihydropyrimidine-4-carboxamide], the Ki was 4.5 nM.

For `CCc1nc(C(=O)N[C@@H](c2ccc(C(F)(F)F)c(F)c2)C2CC2)cc(=O)[nH]1` [Example 603, N-{(R)-cyclopropyl[3-fluoro-4-(trifluoromethyl)phenyl]methyl}-2-ethyl-6-oxo-1,6-dihydropyrimidine-4-carboxamide], the Ki came to 7.2 nM.

For `COc1cc(C(F)(F)F)ccc1C(C)(C)NC(=O)c1cc(=O)[nH]c(C)n1` [Example 594, N-{1-[2-methoxy-4-(trifluoromethyl)phenyl]-1-methylethyl}-2-methyl-6-oxo-1,6-dihydropyrimidine-4-carboxamide], the Ki amounted to 120 nM.

Take `Cc1nc(C(=O)NC2(c3ccc(C(F)(F)F)cc3)CC2(C)C)cc(=O)[nH]1` (stereo not shown) [Example 681, N-(2,2-dimethyl-1-(4-(trifluoromethyl)phenyl)cyclopropyl)-2-methyl-6-oxo-1,6-dihydropyrimidine-4-carboxamide]: the Ki came to 7 nM.

For `CC(NC(=O)c1cc(=O)[nH]c(-c2ccccc2)n1)c1ccc(C2(C(F)(F)F)CC2)cc1` (single isomer, unassigned) [Example 690, (S)- or (R)-6-oxo-2-phenyl-N-(1-(4-(1-(trifluoromethyl)cyclopropyl)phenyl)-ethyl)-1,6-dihydropyrimidine-4-carboxamide], the Ki was greater than 2960 nM.

In the case of `C[C@](CO)(NC(=O)c1cc(=O)[nH]c(-c2ccccc2)n1)c1ccc(C(F)(F)F)cc1Cl` [Example 643, N-{(1S)-1-[2-chloro-4-(trifluoromethyl)phenyl]-2-hydroxy-1-methylethyl}-6-oxo-2-phenyl-1,6-dihydropyrimidine-4-carboxamide], the Ki was 0.5 nM.

Take `O=C(N[C@@H](c1ccc2c(c1)OC(F)(F)O2)C1CC1)c1cc(=O)[nH]c(-c2ncccn2)n1` [Example 591, N-[(R)-cyclopropyl(2,2-difluoro-1,3-benzodioxol-5-yl)methyl]-6-oxo-1,6-dihydro-2,2′-bipyrimidine-4-carboxamide]: the Ki stood at 30 nM.

With `C[C@](CO)(NC(=O)c1cc(=O)[nH]c(-c2ccccc2)n1)c1ccc(C(F)(F)F)cc1` [Example 642, N-{(1S)-2-hydroxy-1-methyl-1-[4-(trifluoromethyl)phenyl]ethyl}-6-oxo-2-phenyl-1,6-dihydropyrimidine-4-carboxamide], the Ki was 4.8 nM.

Turning to `O=C(NC1(c2ccc(S(F)(F)(F)(F)F)cc2)CC1)c1cc(=O)[nH]c(-c2ccccc2)n1` [Example 553, 6-oxo-N-{1-[4-(pentafluoro-λ^6-sulfanyl)phenyl]cyclopropyl}-2-phenyl-1,6-dihydropyrimidine-4-carboxamide], the Ki worked out at 10 nM.

For the compound `Cc1nc(C(=O)N[C@@](C)(CO)c2ccc(C(F)(F)F)cc2)cc(=O)[nH]1` [Example 635, N-{(1R)-2-hydroxy-1-methyl-1-[4-(trifluoromethyl)phenyl)ethyl}-2-methyl-6-oxo-1,6-dihydropyrimidine-4-carboxamide], the Ki was determined as 59 nM.

With `Cc1nc(C(=O)N[C@@H](c2ccc(C(F)F)cc2)C(C)(C)C)cc(=O)[nH]1` [Example 644, N-{(1R)-1-[4-(difluoromethyl)phenyl]-2,2-dimethylpropyl}-2-methyl-6-oxo-1,6-dihydropyrimidine-4-carboxamide], the Ki amounted to 7.3 nM.

On to `CC[C@@H](NC(=O)c1cc(=O)[nH]c(C)n1)c1ccc(C(F)F)c(F)c1` [Example 653], for which the Ki was determined as 148 nM.

As to `Cc1nc(C(=O)N[C@]2(c3ccc(C(C)C)cc3)C[C@H]2C)cc(=O)[nH]1` (single isomer, unassigned) [Example 665, 2-methyl-N-{2-methyl-1-[4-(1-methylethyl)phenyl]cyclopropyl}-6-oxo-1,6-dihydropyrimidine-4-carboxamide], the Ki is 4.95 nM.

As to `CC(C)(C)[C@@H](NC(=O)c1cc(=O)[nH]c(-c2ncccn2)n1)c1ccc(OC(F)F)c(F)c1` [Example 589, N-{(1R)-1-[4-(difluoromethoxy)-3-fluorophenyl]-2,2-dimethylpropyl}-6-oxo-1,6-dihydro-2,2′-bipyrimidine-4-carboxamide], the Ki came to 22 nM.

With `CC(C)(C)[C@@H](NC(=O)c1cc(=O)[nH]c(-c2ccccc2)n1)c1ccc(OC(F)(F)F)c(F)c1` [Example 542, N-{(1R)-1-[3-fluoro-4-(trifluoromethoxy)phenyl]-2,2-dimethylpropyl}-6-oxo-2-phenyl-1,6-dihydropyrimidine-4-carboxamide], the Ki was found to be 1.4 nM.

Take `CC(C)(C)[C@@H](NC(=O)c1cc(=O)[nH]c(-c2ncccn2)n1)c1ccc(C(F)(F)F)c(F)c1` [Example 556, N-{(1R)-1-[3-fluoro-4-(trifluoromethyl)phenyl]-2,2-dimethylpropyl}-6-oxo-1,6-dihydro-2,2′-bipyrimidine-4-carboxamide]: the inhibition constant (Ki) is 7.7 nM.

Turning to `Cc1nc(C(=O)NC(C)(C)c2cc(F)c(C(F)(F)F)cc2Cl)cc(=O)[nH]1` [Example 659, N-{1-[2-chloro-5-fluoro-4-(trifluoromethyl)phenyl]-1-methylethyl}-2-methyl-6-oxo-1,6-dihydropyrimidine-4-carboxamide], the Ki came out at 139 nM.

Take `Cc1nc(C(=O)N[C@@H](c2ccc(OC(F)F)c(F)c2)C2(C)CC2)cc(=O)[nH]1` [Example 631, N-[(R)-[4-(difluoromethoxy)-3-fluorophenyl](1-methylcyclopropyl)methyl]-2-methyl-6-oxo-1,6-dihydropyrimidine-4-carboxamide]: the Ki came out at 13 nM.

For the compound `Cc1nc(C(=O)NC2(c3ccc(OC(C)(C)C)cc3)CC2)cc(=O)[nH]1` [Example 626, N-[1-(4-tert-butoxyphenyl)cyclopropyl]-2-methyl-6-oxo-1,6-dihydropyrimidine-4-carboxamide], the Ki stood at 58 nM.

Regarding `CC(C)(C)[C@@H](NC(=O)c1cc(=O)[nH]c(-c2ccccc2)n1)c1ccc(C2CC2)cc1` [Example 536, N-[(1R)-1-(4-cyclopropylphenyl)-2,2-dimethylpropyl]-6-oxo-2-phenyl-1,6-dihydropyrimidine-4-carboxamide], the Ki came out at 0.51 nM.

Regarding `CC(C)(C)[C@@H](NC(=O)c1cc(=O)[nH]c(-c2ncccn2)n1)c1ccc(SC(F)(F)F)cc1` [Example 555, N-[(1R)-2,2-dimethyl-1-{4-[(trifluoromethyl)sulfanyl]phenyl}propyl]-6-oxo-1,6-dihydro-2,2′-bipyrimidine-4-carboxamide], the Ki turned out to be 4.5 nM.

`Cc1nc(C(=O)NC2(c3ccc(C(F)(F)F)cc3Cl)CC2)cc(=O)[nH]1` [Example 637, N-{1-[2-chloro-4-(trifluoromethyl)phenyl]cyclopropyl}-2-methyl-6-oxo-1,6-dihydropyrimidine-4-carboxamide]: the Ki stood at 16 nM.

Regarding `CC(NC(=O)c1cc(=O)[nH]c(-c2ccccc2)n1)c1ccc(C2(C(F)(F)F)CC2)cc1` (single isomer, unassigned) [Example 691, (R)- or (S)-6-oxo-2-phenyl-N-(1-(4-(1-(trifluoromethyl)cyclopropyl)phenyl)-ethyl)-1,6-dihydropyrimidine-4-carboxamide], the Ki worked out at 39 nM.

Consider `C[C@@H](NC(=O)c1cc(=O)[nH]c(-c2ccccc2)n1)c1cc(F)c(C(F)(F)F)cc1F` [Example 550, N-{(1R)-1-[2,5-difluoro-4-(trifluoromethyl)phenyl]ethyl}-6-oxo-2-phenyl-1,6-dihydropyrimidine-4-carboxamide], for which the Ki amounted to 17 nM.

Consider `Cc1nc(C(=O)N[C@]2(c3ccc(C(F)(F)F)cc3)C[C@@H]2C)cc(=O)[nH]1` (single isomer, unassigned) [Example 670, 2-methyl-N-{2-methyl-1-[4-(trifluoromethyl)phenyl]cyclopropyl}-6-oxo-1,6-dihydropyrimidine-4-carboxamide], for which the Ki stood at 28 nM.

With `O=C(N[C@@H]1CCCc2cc(C(F)(F)F)ccc21)c1cc(=O)[nH]c(-c2ccccc2)n1` [Example 552, 6-oxo-2-phenyl-N-[(1R)-6-(trifluoromethyl)-1,2,3,4-tetrahydronaphthalen-1-yl]-1,6-dihydropyrimidine-4-carboxamide], the Ki was determined as 96 nM.
